Results reported in patent publication US20170008921A1, “C-3 NOVEL TRITERPENONE WITH C-28 REVERSE AMIDE DERIVATIVES AS HIV INHIBITORS” (HETERO RESEARCH FOUNDATION, priority 2015, published 2017).

Columns and labels:
[1] = Cyto-toxicity (MTT assay); type: cell-based
[2] = Single dose oral pharmacokinetic study; type: in vivo; conditions: mouse, Mice oral PK @30 mg/kg, plasma, vehicle 10% Solutol+20% PEG; for AUC(0-t): read-out: AUC0-t; for Cmax: read-out: Cmax
How it was run: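 Rats or mice dosed orally at 30 mg/kg in 10% Solutol+20% PEG. Acetonitrile precipitation, then LC-MS/MS quantification for PK parameters.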

CC(C)C1=C2[C@H]3CC[C@@H]4[C@@]5(C)CC[C@H](OC(=O)[C@H]6C[C@@H](C(=O)O)C6(C)C)C(C)(C)[C@@H]5CC[C@@]4(C)[C@]3(C)CC[C@@]2(NC(=O)C(C)(C)NC(=O)c2ccc(S(C)(=O)=O)cc2)CC1=O [Example 51, (1R,3S)-3-((((3aR,5aR,5bR,7aR,9S,11aR,11bR,13aS)-1-isopropyl-5a,5b,8,8,11a-pentamethyl-3a-(2-methyl-2-(4-(methylsulfonyl)benzamido)propanamido)-2-oxo-3,3a,4,5,5a,5b,6,7,7a,8,9,10,11,11a,11b,12,13,13a-octadecahydro-2H-cyclopenta[a]chrysen-9-yl)oxy)carbonyl)-2,2-dimethylcyclobutane-1-carboxylic acid] showed a viability at 4 days, 0.001 µM [1] of 86%, a viability at 4 days, 0.003 µM [1] of 85% and a viability at 4 days, 0.01 µM [1] of 37%. For the same compound, the AUC(0-t) [2] was 277 µg·h/mL and the Cmax [2] was 32300 ng/mL.

With CC(C)C1=C2[C@H]3CC[C@@H]4[C@@]5(C)CC[C@H](OC(=O)[C@H]6C[C@@H](C(=O)O)C6(C)C)C(C)(C)[C@@H]5CC[C@@]4(C)[C@]3(C)CC[C@@]2(NC(=O)C(C)(C)NC(=O)c2ccc3[nH]cnc3c2)CC1=O [Example 12, (1R,3S)-3-((((3aR,5aR,5bR,7aR,9S,11aR,11bR,13aS)-3a-(2-(1H-benzo[d]imidazole-5-carboxamido)-2-methylpropanamido)-1-isopropyl-5a,5b,8,8,11a-pentamethyl-2-oxo-3,3a,4,5,5a,5b,6,7,7a,8,9,10,11,11a,11b,12,13,13a-octadecahydro-2H-cyclopenta[a]chrysen-9-yl)oxy)carbonyl)-2,2-dimethylcyclobutane-1-carboxylic acid] the viability at 4 days, 0.01 µM [1] was 42%, the viability at 4 days, 0.1 µM [1] was 7% and the viability at 4 days, 1 µM [1] was 3%. It also gave an AUC(0-t) [2] of 61.3 µg·h/mL and a Cmax [2] of 8540 ng/mL.

In the case of CC(C)C1=C2[C@H]3CC[C@@H]4[C@@]5(C)CC[C@H](OC(=O)[C@H]6C[C@@H](C(=O)O)C6(C)C)C(C)(C)[C@@H]5CC[C@@]4(C)[C@]3(C)CC[C@@]2(NC(=O)C2(NC(=O)c3ccc(Cl)cc3)CCCC2)CC1=O [Example 46, (1R,3S)-3-((((3aR,5aR,5bR,7aR,9S,11aR,11bR,13aS)-3a-(1-(4-chlorobenzamido)cyclopentane-1-carboxamido)-1-isopropyl-5a,5b,8,8,11a-pentamethyl-2-oxo-3,3a,4,5,5a,5b,6,7,7a,8,9,10,11,11a,11b,12,13,13a-octadecahydro-2H-cyclopenta[a]chrysen-9-yl)oxy)carbonyl)-2,2-dimethylcyclobutane-1-carboxylic acid], the viability at 4 days, 0.01 µM [1] is reported as 52%, the viability at 4 days, 0.1 µM [1] is reported as 12% and the viability at 4 days, 1 µM [1] is reported as 4%. The AUC(0-t) [2] was 836 µg·h/mL and the Cmax [2] was 29500 ng/mL.

With CC(C)C1=C2[C@H]3CC[C@@H]4[C@@]5(C)CC[C@H](OC(=O)[C@H]6C[C@@H](C(=O)O)C6(C)C)C(C)(C)[C@@H]5CC[C@@]4(C)[C@]3(C)CC[C@@]2(NC(=O)C(C)(C)NC(=O)C2(c3ccc(Cl)cc3)CC2)CC1=O [Example 2, (1R,3S)-3-((((3aR,5aR,5bR,7aR,9S,11aR,11bR,13aS)-3a-(2-(1-(4-chlorophenyl)cyclopropane-1-carboxamido)-2-methylpropanamido)-1-isopropyl-5a,5b,8,8, 11a-pentamethyl-2-oxo-3,3a,4,5,5a,5b,6,7,7a,8,9,10,11,11a,11b,12,13,13a-octadecahydro-2H-cyclopenta[a]chrysen-9-yl)oxy)carbonyl)-2,2-dimethylcyclobutane-1-carboxylic acid] the viability at 4 days, 0.01 µM [1] was 42%, the viability at 4 days, 0.1 µM [1] was 9% and the viability at 4 days, 1 µM [1] was 8%. The AUC(0-t) [2] was 166 µg·h/mL and the Cmax [2] was 13200 ng/mL.

Compound Cc1ccc(C(=O)NC2(C(=O)N[C@@]34CC[C@]5(C)[C@H](CC[C@@H]6[C@@]7(C)CC[C@H](OC(=O)[C@H]8C[C@@H](C(=O)O)C8(C)C)C(C)(C)[C@@H]7CC[C@]65C)C3=C(C(C)C)C(=O)C4)CCCC2)cn1 [Example 47, (1R,3S)-3-((((3aR,5aR,5bR,7aR,9S,11aR,11bR,13aS)-1-isopropyl-5a,5b,8,8,11a-pentamethyl-3a-(1-(6-methylnicotinamido)cyclopentane-1-carboxamido)-2-oxo-3,3a,4,5,5a,5b,6,7,7a,8,9,10,11,11a,11b,12,13,13a-octadecahydro-2H-cyclopenta[a]chrysen-9-yl)oxy)carbonyl)-2,2-dimethylcyclobutane-1-carboxylic acid] has a viability at 4 days, 0.01 µM [1] of 75%, a viability at 4 days, 0.1 µM [1] of 14% and a viability at 4 days, 1 µM [1] of 4%. The AUC(0-t) [2] was 538 µg·h/mL and the Cmax [2] was 23600 ng/mL.

In the case of CC(C)C1=C2[C@H]3CC[C@@H]4[C@@]5(C)CC[C@H](OC(=O)[C@H]6C[C@@H](C(=O)O)C6(C)C)C(C)(C)[C@@H]5CC[C@@]4(C)[C@]3(C)CC[C@@]2(NC(=O)C(C)(C)NCc2ccccn2)CC1=O [Example 67, (1R,3S)-3-((((3aR,5aR,5bR,7aR,9S,11aR,11bR,13aS)-1-isopropyl-5a,5b,8,8,11a-pentamethyl-3a-(2-methyl-2-((pyridin-2-ylmethyl)amino)propan amido)-2-oxo-3,3a,4,5,5a,5b,6,7,7a,8,9,10,11,11a,11b,12,13,13a-octadecahydro-2H-cyclopenta[a]chrysen-9-yl)oxy)carbonyl)-2,2-dimethylcyclobutane-1-carboxylic acid], the viability at 4 days, 0.01 µM [1] is reported as 59%, the viability at 4 days, 0.1 µM [1] is reported as 21% and the viability at 4 days, 1 µM [1] is reported as 3%. The AUC(0-t) [2] was 86.6 µg·h/mL and the Cmax [2] was 24300 ng/mL.

Cc1ccc(C(=O)NC(C)(C)C(=O)N[C@@]23CC[C@]4(C)[C@H](CC[C@@H]5[C@@]6(C)CC[C@H](OC(=O)[C@H]7C[C@@H](C(=O)O)C7(C)C)C(C)(C)[C@@H]6CC[C@]54C)C2=C(C(C)C)C(=O)C3)cn1 [Example 61, (1R,3S)-3-((((3aR,5aR,5bR,7aR,9S,11aR,11bR,13aS)-1-isopropyl-5a,5b,8,8,11a-pentamethyl-3a-(2-methyl-2-(6-methylnicotinamido)propanamido)-2-oxo-3,3a,4,5,5a,5b,6,7,7a,8,9,10,11,11a,11b,12,13,13a-octadecahydro-2H-cyclopenta[a]chrysen-9-yl)oxy)carbonyl)-2,2-dimethylcyclobutane-1-carboxylic acid] gave a viability at 4 days, 0.01 µM [1] of 88%, a viability at 4 days, 0.1 µM [1] of 42% and a viability at 4 days, 1 µM [1] of 2%. It also gave an AUC(0-t) [2] of 615 µg·h/mL and a Cmax [2] of 45700 ng/mL.

Cc1ccc(-c2nc3cc(C(=O)NC(C)(C)C(=O)N[C@@]45CC[C@]6(C)[C@H](CC[C@@H]7[C@@]8(C)CC[C@H](OC(=O)[C@H]9C[C@@H](C(=O)O)C9(C)C)C(C)(C)[C@@H]8CC[C@]76C)C4=C(C(C)C)C(=O)C5)ccc3[nH]2)cn1 [Example 13, (1R,3S)-3-((((3aR,5aR,5bR,7aR,9S,11aR,11bR,13aS)-1-isopropyl-5a,5b,8,8,11a-pentamethyl-3a-(2-methyl-2-(2-(6-methylpyridin-3-yl)-1H-benzo[d]imidazole-5-carboxamido)propanamido)-2-oxo-3,3a,4,5,5a,5b,6,7,7a,8,9,10,11,11a,11b,12, 13,13a-octadecahydro-2H-cyclopenta[a]chrysen-9-yl)oxy)carbonyl)-2,2-dimethylcyclobutane-1-carboxylic acid] showed a viability at 4 days, 0.01 µM [1] of 45%, a viability at 4 days, 0.1 µM [1] of 10% and a viability at 4 days, 1 µM [1] of 4%. For the same compound, the AUC(0-t) [2] was 18.2 µg·h/mL and the Cmax [2] was 2720 ng/mL.

CC(C)C1=C2[C@H]3CC[C@@H]4[C@@]5(C)CC[C@H](OC(=O)[C@H]6C[C@@H](C(=O)O)C6(C)C)C(C)(C)[C@@H]5CC[C@@]4(C)[C@]3(C)CC[C@@]2(NC(=O)C(C)(C)NC(=O)c2ccccc2)CC1=O [Example 3, (1R,3S)-3-((((3aR,5aR,5bR,7aR,9S,11aR,11bR,13aS)-3a-(2-benzamido-2-methylpropanamido)-1-isopropyl-5a,5b,8,8,11a-pentamethyl-2-oxo-3,3a,4,5,5a, 5b,6,7,7a,8,9,10,11,11a,11b,12,13,13a-octadecahydro-2H-cyclopenta[a]chrysen-9-yl)oxy)carbonyl)-2,2-dimethylcyclobutane-1-carboxylic acid] gave a viability at 4 days, 0.01 µM [1] of 32%, a viability at 4 days, 0.1 µM [1] of 13% and a viability at 4 days, 1 µM [1] of 7%. It also gave an AUC(0-t) [2] of 545 µg·h/mL and a Cmax [2] of 29600 ng/mL.

For Cc1noc(C)c1C(=O)NC(C)(C)C(=O)N[C@@]12CC[C@]3(C)[C@H](CC[C@@H]4[C@@]5(C)CC[C@H](OC(=O)[C@H]6C[C@@H](C(=O)O)C6(C)C)C(C)(C)[C@@H]5CC[C@]43C)C1=C(C(C)C)C(=O)C2 [Example 19, (1R,3S)-3-((((3aR,5aR,5bR,7aR,9S,11aR,11bR,13aS)-3a-(2-(3,5-dimethylisoxazole-4-carboxamido)-2-methylpropanamido)-1-isopropyl-5a,5b,8,8,11a-pentamethyl-2-oxo-3,3a,4,5,5a,5b,6,7,7a,8,9,10,11,11a,11b,12,13,13a-octadecahydro-2H-cyclopenta[a]chrysen-9-yl)oxy)carbonyl)-2,2-dimethylcyclobutane-1-carboxylic acid], the viability at 4 days, 0.001 µM [1] was 79%, the viability at 4 days, 0.003 µM [1] was 65% and the viability at 4 days, 0.01 µM [1] was 40%. For the same compound, the AUC(0-t) [2] was 93 µg·h/mL and the Cmax [2] was 13900 ng/mL.

Compound Cc1cccc(C(=O)NC(C)(C)C(=O)N[C@@]23CC[C@]4(C)[C@H](CC[C@@H]5[C@@]6(C)CC[C@H](OC(=O)[C@H]7C[C@@H](C(=O)O)C7(C)C)C(C)(C)[C@@H]6CC[C@]54C)C2=C(C(C)C)C(=O)C3)n1 [Example 60, (1R,3S)-3-((((3aR,5aR,5bR,7aR,9S,11aR,11bR,13aS)-1-isopropyl-5a,5b,8,8,11a-pentamethyl-3a-(2-methyl-2-(6-methylpicolinamido)propanamido)-2-oxo-3,3a,4,5,5a,5b,6,7,7a,8,9,10,11,11a,11b,12,13,13a-octadecahydro-2H-cyclopenta[a]chrysen-9-yl)oxy)carbonyl)-2,2-dimethylcyclobutane-1-carboxylic acid] has a viability at 4 days, 0.01 µM [1] of 77%, a viability at 4 days, 0.1 µM [1] of 27% and a viability at 4 days, 1 µM [1] of 2%. For the same compound, the AUC(0-t) [2] was 217 µg·h/mL and the Cmax [2] was 20200 ng/mL.
